Experimental data reported in ChEMBL document CHEMBL5543075, “Phenoxytacrine derivatives: Low-toxicity neuroprotectants exerting affinity to ifenprodil-binding site and cholinesterase inhibition” (Eur J Med Chem, 2024).
Calls of active or inactive are those of the source. The calls are words filed in the database; no cut-off is given here.

What was measured:
[1] = Cytotoxicity against CHO-K1 cells incubated for 24 hrs by MTT assay; type: toxicity, cell-based, Cricetulus griseus; settings: Chinese hamster
Acetylcholinesterase = Acetylcholinesterase (Homo sapiens, UniProt P22303); experiment: Inhibition of human AChE by spectrophotometric Ellman's method
Cholinesterase = Cholinesterase (Homo sapiens, UniProt P06276); experiment: Inhibition of human BChE by spectrophotometric Ellman's method
[2] = target: T1, Glutamate NMDA receptor; GRIN1/GRIN2B (Homo sapiens, UniProt Q05586+Q13224); experiment: Inhibition of recombinant human GluN1/GluN2B receptor expressed in HEK293 cells assessed as reduction in glutamate induced current at 1 uM at -60 mV holding potential by electrophysiology assay relative to control; type: cell-based
[3] = target: T2, Glutamate NMDA receptor; GRIN1/GRIN2A (Homo sapiens, UniProt Q05586+Q12879); experiment: Inhibition of recombinant wild type human GluN1/GluN2A receptor expressed in HEK293 cells assessed as reduction in glutamate induced current at -60 mV holding potential by electrophysiology assay; type: cell-based
[4] = target: T1, Glutamate NMDA receptor; GRIN1/GRIN2B; experiment: Inhibition of recombinant wild type human GluN1/GluN2B receptor expressed in HEK293 cells assessed as reduction in glutamate induced current at -60 mV holding potential by electrophysiology assay; type: cell-based
[5] = Inhibition of recombinant human GluN1 deltaATD/GluN2B receptor expressed in HEK293 cells assessed as reduction in glutamate induced current at -60 mV holding potential by electrophysiology assay; type: cell-based
[6] = Inhibition of recombinant human GluN1 F113A /GluN2B receptor expressed in HEK293 cells assessed as reduction in glutamate induced current at -60 mV holding potential by electrophysiology assay; type: cell-based
[7] = Inhibition of recombinant human GluN1 Y109C /GluN2B receptor expressed in HEK293 cells assessed as reduction in glutamate induced current at -60 mV holding potential by electrophysiology assay; type: cell-based
[8] = Inhibition of recombinant human GluN1/GluN2B Q110F mutant receptor expressed in HEK293 cells assessed as reduction in glutamate induced current at -60 mV holding potential by electrophysiology assay; type: cell-based
[9] = Inhibition of recombinant human GluN1/GluN2B F114A mutant receptor expressed in HEK293 cells assessed as reduction in glutamate induced current at -60 mV holding potential by electrophysiology assay; type: cell-based
[10] = target: T2, Glutamate NMDA receptor; GRIN1/GRIN2A; experiment: Inhibition of recombinant wild type human GluN1/GluN2A receptor expressed in HEK293 cells assessed as reduction in glutamate induced current at -40 mV holding potential by electrophysiology assay; type: cell-based
[11] = target: T1, Glutamate NMDA receptor; GRIN1/GRIN2B; experiment: Inhibition of recombinant wild type human GluN1/GluN2B receptor expressed in HEK293 cells assessed as reduction in glutamate induced current at -40 mV holding potential by electrophysiology assay; type: cell-based
[12] = Inhibition of recombinant human GluN1 deltaATD/GluN2B receptor expressed in HEK293 cells assessed as reduction in glutamate induced current at -40 mV holding potential by electrophysiology assay; type: cell-based
[13] = Inhibition of recombinant human GluN1 F113A /GluN2B receptor expressed in HEK293 cells assessed as reduction in glutamate induced current at -40 mV holding potential by electrophysiology assay; type: cell-based
[14] = Inhibition of recombinant human GluN1 Y109C /GluN2B receptor expressed in HEK293 cells assessed as reduction in glutamate induced current at -40 mV holding potential by electrophysiology assay; type: cell-based
[15] = Inhibition of recombinant human GluN1/GluN2B Q110F mutant receptor expressed in HEK293 cells assessed as reduction in glutamate induced current at -40 mV holding potential by electrophysiology assay; type: cell-based
[16] = Inhibition of recombinant human GluN1/GluN2B F114A mutant receptor expressed in HEK293 cells assessed as reduction in glutamate induced current at -40 mV holding potential by electrophysiology assay; type: cell-based
[17] = Toxicity in Wistar rat assessed as no observed adverse effect level (NOAEL) at 5 mg/kg, ip; type: organism-based; settings: in vivo
[18] = Toxicity in Wistar rat assessed as reduction in breathing at 10 mg/kg, ip; type: organism-based; settings: in vivo
[19] = Toxicity in Wistar rat assessed as loss of activity at 10 mg/kg, ip; type: organism-based; settings: in vivo
Rattus norvegicus [20] = experiment: Antipsychotic activity in Wistar rat assessed as effect on locomotor activity at 5 mg/kg, ip measured after 10 mins by open field test; type: functional, organism-based
Rattus norvegicus [21] = experiment: Antipsychotic activity in Wistar rat assessed as effect on pre-pulse inhibition of acoustic startle response at 5 mg/kg, ip measured after 10 mins by pre-pulse inhibition test; type: functional, organism-based
Rattus norvegicus [22] = experiment: Antialzheimer activity against scopolamine-induced cognitive impairment in Wistar rat assessed as decrease in latency to reach platform at 5 mg/kg, ip measured upto 4 days by morris water maze test; type: functional, organism-based; settings: time <= 4.0 day
Rattus norvegicus [23] = experiment: Antialzheimer activity against scopolamine-induced cognitive impairment in Wistar rat assessed as decrease in mean distance from platform at 5 mg/kg, ip measured upto 4 days by morris water maze test (reference value: 51.7 +/-1.5 cm); type: functional; settings: time <= 4 day
Rattus norvegicus [24] = experiment: Antialzheimer activity against scopolamine-induced cognitive impairment in Wistar rat assessed as increase in number of platform crossing at 5 mg/kg, ip measured upto 4 days by morris water maze test; type: functional, organism-based; settings: time <= 4.0 day
in vitro [25] = settings: human, liver microsomes
Description: Metabolic stability in human liver microsomes assessed as half life at 3 uM measured upto 45 min in presence of NADPH regenerating system by LC-MS analysis

in vitro [26] = settings: human, liver microsomes; remark: listed apart in the source
Description: Metabolic stability in human liver microsomes assessed as intrinsic clearance at 3 uM measured upto 45 min in presence of NADPH regenerating system by LC-MS analysis

[27] = Toxicity in Wistar rat assessed as no observed adverse effect level (NOAEL) at 10 mg/kg, ip; type: organism-based; settings: in vivo
[28] = Toxicity in Wistar rat assessed as no observed adverse effect level (NOAEL) at 20 mg/kg, ip measured after 10 to 15 mins; type: organism-based; settings: in vivo, time 10-15 min
Rattus norvegicus [29] = experiment: Antipsychotic activity in Wistar rat assessed as effect on locomotor activity at 2 mg/kg, ip measured after 10 mins by open field test; type: functional, organism-based
Rattus norvegicus [30] = experiment: Antipsychotic activity in Wistar rat assessed as effect on pre-pulse inhibition of acoustic startle response at 2 mg/kg, ip measured after 10 mins by pre-pulse inhibition test; type: functional, organism-based
Rattus norvegicus [31] = experiment: Antialzheimer activity against scopolamine-induced cognitive impairment in Wistar rat assessed as decrease in latency to reach platform at 2 mg/kg, ip measured upto 4 days by morris water maze test; type: functional, organism-based; settings: time <= 4.0 day
Hippocampal neurone = experiment: Neuroprotective activity against NMDA-induced cell injury in rat Hippocampal neuron cells assessed as decrease in damage score at 30 uM measured after 24 hrs by FJB staining based microscopy; type: functional
Rattus norvegicus [32] = experiment: Antipsychotic activity in Wistar rat assessed as effect on locomotor activity at 0.2 mg/kg, ip measured after 10 mins by open field test; type: functional, organism-based
Rattus norvegicus [33] = experiment: Antipsychotic activity in Wistar rat assessed as effect on pre-pulse inhibition of acoustic startle response at 0.3 mg/kg, ip measured after 10 mins by pre-pulse inhibition test; type: functional, organism-based

T2 sequence (Q12879 whole entry, other chains not shown): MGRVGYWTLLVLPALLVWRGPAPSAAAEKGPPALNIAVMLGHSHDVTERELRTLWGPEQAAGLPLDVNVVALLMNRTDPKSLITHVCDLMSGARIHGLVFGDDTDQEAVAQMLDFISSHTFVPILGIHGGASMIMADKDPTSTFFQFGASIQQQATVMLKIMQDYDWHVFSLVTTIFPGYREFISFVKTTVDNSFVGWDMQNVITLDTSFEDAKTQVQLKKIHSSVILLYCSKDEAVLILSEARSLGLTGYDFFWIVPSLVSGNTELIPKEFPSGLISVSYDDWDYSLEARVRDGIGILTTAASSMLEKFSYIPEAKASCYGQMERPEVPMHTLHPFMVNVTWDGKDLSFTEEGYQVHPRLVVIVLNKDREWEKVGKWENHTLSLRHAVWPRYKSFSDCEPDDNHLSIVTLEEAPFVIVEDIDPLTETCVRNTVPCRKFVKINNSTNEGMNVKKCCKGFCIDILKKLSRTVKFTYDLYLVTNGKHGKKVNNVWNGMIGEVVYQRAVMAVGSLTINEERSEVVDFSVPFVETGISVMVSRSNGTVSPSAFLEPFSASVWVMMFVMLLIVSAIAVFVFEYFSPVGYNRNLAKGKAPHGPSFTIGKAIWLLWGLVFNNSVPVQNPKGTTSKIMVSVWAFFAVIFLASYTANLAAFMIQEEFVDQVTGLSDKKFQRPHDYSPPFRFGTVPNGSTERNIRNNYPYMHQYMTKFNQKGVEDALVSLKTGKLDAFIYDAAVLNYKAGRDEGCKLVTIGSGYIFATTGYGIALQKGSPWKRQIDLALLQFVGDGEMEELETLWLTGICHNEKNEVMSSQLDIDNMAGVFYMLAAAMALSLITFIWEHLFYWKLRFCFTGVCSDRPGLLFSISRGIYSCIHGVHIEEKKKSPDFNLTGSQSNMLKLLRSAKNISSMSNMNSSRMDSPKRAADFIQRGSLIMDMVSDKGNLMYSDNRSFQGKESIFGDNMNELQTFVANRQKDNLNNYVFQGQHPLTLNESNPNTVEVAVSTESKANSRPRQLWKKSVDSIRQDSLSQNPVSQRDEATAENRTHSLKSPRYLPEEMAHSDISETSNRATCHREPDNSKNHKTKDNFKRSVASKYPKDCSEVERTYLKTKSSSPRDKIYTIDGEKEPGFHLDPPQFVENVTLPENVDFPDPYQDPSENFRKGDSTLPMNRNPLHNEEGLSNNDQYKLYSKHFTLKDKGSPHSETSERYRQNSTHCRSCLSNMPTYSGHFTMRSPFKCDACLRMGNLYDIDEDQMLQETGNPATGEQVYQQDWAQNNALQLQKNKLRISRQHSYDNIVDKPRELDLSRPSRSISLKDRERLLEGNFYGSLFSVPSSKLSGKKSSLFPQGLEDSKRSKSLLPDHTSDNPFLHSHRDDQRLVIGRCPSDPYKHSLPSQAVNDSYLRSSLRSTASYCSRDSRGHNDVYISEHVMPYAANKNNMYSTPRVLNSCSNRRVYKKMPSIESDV
Sequence of Acetylcholinesterase (P22303 whole entry): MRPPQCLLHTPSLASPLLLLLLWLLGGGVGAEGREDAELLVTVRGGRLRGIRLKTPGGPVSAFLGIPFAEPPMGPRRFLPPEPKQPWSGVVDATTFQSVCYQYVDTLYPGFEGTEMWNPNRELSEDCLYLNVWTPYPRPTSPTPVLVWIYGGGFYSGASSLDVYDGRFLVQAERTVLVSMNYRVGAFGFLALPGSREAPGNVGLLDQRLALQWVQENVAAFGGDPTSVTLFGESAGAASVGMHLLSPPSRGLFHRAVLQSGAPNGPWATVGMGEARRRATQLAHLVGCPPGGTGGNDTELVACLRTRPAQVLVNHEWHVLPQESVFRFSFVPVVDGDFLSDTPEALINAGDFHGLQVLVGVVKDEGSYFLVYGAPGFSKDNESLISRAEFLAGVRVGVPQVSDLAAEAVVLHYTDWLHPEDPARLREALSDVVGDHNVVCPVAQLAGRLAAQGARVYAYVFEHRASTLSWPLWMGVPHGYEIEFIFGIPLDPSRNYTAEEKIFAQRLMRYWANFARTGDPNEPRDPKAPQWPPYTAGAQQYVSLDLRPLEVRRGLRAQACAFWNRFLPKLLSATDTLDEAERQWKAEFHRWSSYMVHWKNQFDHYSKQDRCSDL
Sequence of Cholinesterase (P06276 whole entry): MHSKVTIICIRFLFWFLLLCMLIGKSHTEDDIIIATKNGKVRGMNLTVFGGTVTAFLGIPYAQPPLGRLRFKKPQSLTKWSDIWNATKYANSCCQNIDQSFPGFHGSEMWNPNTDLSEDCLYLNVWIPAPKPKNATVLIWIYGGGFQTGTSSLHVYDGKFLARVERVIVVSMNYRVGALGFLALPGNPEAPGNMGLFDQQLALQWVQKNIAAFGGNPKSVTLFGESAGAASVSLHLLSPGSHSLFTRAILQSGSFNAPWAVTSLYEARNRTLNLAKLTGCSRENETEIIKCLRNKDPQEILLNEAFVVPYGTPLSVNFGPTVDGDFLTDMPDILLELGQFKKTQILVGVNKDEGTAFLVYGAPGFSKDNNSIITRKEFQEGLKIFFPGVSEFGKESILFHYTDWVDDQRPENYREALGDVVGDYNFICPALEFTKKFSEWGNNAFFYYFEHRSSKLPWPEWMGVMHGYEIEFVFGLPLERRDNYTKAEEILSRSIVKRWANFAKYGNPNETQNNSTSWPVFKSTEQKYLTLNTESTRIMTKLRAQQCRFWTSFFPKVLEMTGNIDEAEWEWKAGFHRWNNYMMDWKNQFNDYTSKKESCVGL

In the case of COc1ccccc1Oc1ccc2nc3c(c(N)c2c1)CCCC3.Cl, the IC50 at 24 h [1] is reported as 43 µM, the IC50 (Acetylcholinesterase) is reported as 0.84 µM and the IC50 (Cholinesterase) is reported as 0.44 µM. It also gave an inhibition [2] of 25.7%, an IC50 [3] of 10.1 µM and an IC50 [4] of 3.6 µM. For the same compound, the IC50 [5] was 11.1 µM, the IC50 [6] was 1.7 µM and the IC50 [7] was 9.5 µM. For the same compound, the IC50 [8] was 9.5 µM, the IC50 [9] was 9.4 µM and the IC50 [10] was 43.8 µM. The IC50 [11] was 6.8 µM, the IC50 [12] was 47.2 µM and the IC50 [13] was 2.1 µM. The IC50 [14] was 8.4 µM, the IC50 [15] was 10.3 µM and the IC50 [16] was 31.9 µM. The Activity [17] was “Non-Toxic”, the Activity [18] was “Toxic” and the Activity [19] was “Toxic”. For the same compound, the Activity (Rattus norvegicus [20]) was “inactive”, the Activity (Rattus norvegicus [21]) was “inactive” and the Activity (Rattus norvegicus [22]) was “inactive”. For the same compound, the Activity (Rattus norvegicus [23]) was 78.7 cm, the Activity (Rattus norvegicus [24]) was “inactive” and the half-life at 0.75 h, 3 µM (in vitro [25]) was 2.69 h. For the same compound, the microsomal CLint at 0.75 h, 3 µM (in vitro [26]) was 8.61 µL/min/mg.
Work on COc1cccc(Oc2ccc3nc4c(c(N)c3c2)CCC4)c1 yielded an IC50 at 24 h [1] of 85 µM, an IC50 (Acetylcholinesterase) of 5.25 µM and an IC50 (Cholinesterase) of 7.96 µM. It also gave an inhibition [2] of 16%.
For Cc1cc(C)cc(Oc2ccc3nc4c(c(N)c3c2)CCCCC4)c1, the IC50 at 24 h [1] was 30 µM, the IC50 (Acetylcholinesterase) was 0.99 µM and the IC50 (Cholinesterase) was 5.27 µM. For the same compound, the inhibition [2] was 7.8%.
COc1ccccc1Oc1ccc2nc3c(c(N)c2c1)CCC3.Cl showed an IC50 at 24 h [1] of 68 µM, an IC50 (Acetylcholinesterase) of 8.52 µM and an IC50 (Cholinesterase) of 5.48 µM. It also gave an inhibition [2] of 35%, an IC50 [3] of 5.1 µM and an IC50 [4] of 2.4 µM. For the same compound, the IC50 [5] was 5.2 µM, the Activity [27] was “Non-Toxic” and the Activity [28] was “Toxic”. The Activity (Rattus norvegicus [29]) was “inactive”, the Activity (Rattus norvegicus [30]) was “inactive” and the Activity (Rattus norvegicus [31]) was “Active”. The Activity (Hippocampal neurone) was “Active”, the half-life at 0.75 h, 3 µM (in vitro [25]) was 1.16 h and the microsomal CLint at 0.75 h, 3 µM (in vitro [26]) was 20 µL/min/mg.
Work on Cc1cccc(Oc2ccc3nc4c(c(N)c3c2)CCCCC4)c1 yielded an IC50 at 24 h [1] of 13 µM, an IC50 (Acetylcholinesterase) of 12.3 µM and an IC50 (Cholinesterase) of 2.74 µM. For the same compound, the inhibition [2] was 14.8%.
In the case of COc1cccc(Oc2ccc3nc4c(c(N)c3c2)CCCC4)c1, the IC50 at 24 h [1] is reported as 27 µM, the IC50 (Acetylcholinesterase) is reported as 2.64 µM and the IC50 (Cholinesterase) is reported as 2.76 µM. The inhibition [2] was 14.7%.
COc1ccc(Oc2ccc3nc4c(c(N)c3c2)CCC4)cc1 gave an IC50 at 24 h [1] of 81 µM, an IC50 (Acetylcholinesterase) of 4.24 µM and an IC50 (Cholinesterase) of 14.5 µM. The inhibition [2] was 22.7%.
For C[C@]12N[C@H](Cc3ccccc31)c1ccccc12, the Activity (Rattus norvegicus [32]) was “Active” and the Activity (Rattus norvegicus [33]) was “Active”.
Compound CC(C)(C)c1ccc(Oc2ccc3nc4c(c(N)c3c2)CCC4)cc1 has an IC50 at 24 h [1] of 11 µM, an IC50 (Acetylcholinesterase) of 2.78 µM and an IC50 (Cholinesterase) of 3.11 µM. The inhibition [2] was 6.7%.
Work on COc1ccc(Oc2ccc3nc4c(c(N)c3c2)CCCC4)cc1 yielded an IC50 at 24 h [1] of 26 µM, an IC50 (Acetylcholinesterase) of 2.9 µM and an IC50 (Cholinesterase) of 7.26 µM. The inhibition [2] was 33.2%.
Work on CC(=O)c1ccc(Oc2ccc3nc4c(c(N)c3c2)CCC4)cc1 yielded an IC50 at 24 h [1] of 69 µM, an IC50 (Acetylcholinesterase) of 5.76 µM and an IC50 (Cholinesterase) of 16.5 µM. The inhibition [2] was 9.5%.
With COc1ccc(Oc2ccc3nc4c(c(N)c3c2)CCCCC4)cc1 the IC50 at 24 h [1] was 28 µM, the IC50 (Acetylcholinesterase) was 3.63 µM and the IC50 (Cholinesterase) was 2.74 µM. It also gave an inhibition [2] of 29.6%.
With COc1cccc(Oc2ccc3nc4c(c(N)c3c2)CCCCC4)c1 the IC50 at 24 h [1] was 21 µM, the IC50 (Acetylcholinesterase) was 4.25 µM and the IC50 (Cholinesterase) was 2.62 µM. It also gave an inhibition [2] of 7.1%.
Work on Cc1ccc(Oc2ccc3nc4c(c(N)c3c2)CCC4)cc1 yielded an IC50 at 24 h [1] of 76 µM, an IC50 (Acetylcholinesterase) of 8.36 µM and an IC50 (Cholinesterase) of 7.34 µM. For the same compound, the inhibition [2] was 18.7%.
Cc1cc(C)cc(Oc2ccc3nc4c(c(N)c3c2)CCCC4)c1 gave an IC50 at 24 h [1] of 13 µM, an IC50 (Acetylcholinesterase) of 1.62 µM and an IC50 (Cholinesterase) of 3.88 µM. For the same compound, the inhibition [2] was 8.2%.
